Source: BindingDB's records for doi:10.1021/jm300579z (Merck Research Laboratories, 2012)

Biological target: Pituitary adenylate cyclase-activating polypeptide type I receptor (Homo sapiens) (UniProt P41586)
Assay: Antagonist activity at human PAC1 expressed in mouse […] 3T3 cells assessed as inhibition of glucagon-induced cAMP accumulation preincubated for 30 mins prior to glucagon challenge measured after 30 mins post glucagon challenge by liquid scintillation counter

Sequence of Pituitary adenylate cyclase-activating polypeptide type I receptor (Homo sapiens) (P41586 whole entry, looked up): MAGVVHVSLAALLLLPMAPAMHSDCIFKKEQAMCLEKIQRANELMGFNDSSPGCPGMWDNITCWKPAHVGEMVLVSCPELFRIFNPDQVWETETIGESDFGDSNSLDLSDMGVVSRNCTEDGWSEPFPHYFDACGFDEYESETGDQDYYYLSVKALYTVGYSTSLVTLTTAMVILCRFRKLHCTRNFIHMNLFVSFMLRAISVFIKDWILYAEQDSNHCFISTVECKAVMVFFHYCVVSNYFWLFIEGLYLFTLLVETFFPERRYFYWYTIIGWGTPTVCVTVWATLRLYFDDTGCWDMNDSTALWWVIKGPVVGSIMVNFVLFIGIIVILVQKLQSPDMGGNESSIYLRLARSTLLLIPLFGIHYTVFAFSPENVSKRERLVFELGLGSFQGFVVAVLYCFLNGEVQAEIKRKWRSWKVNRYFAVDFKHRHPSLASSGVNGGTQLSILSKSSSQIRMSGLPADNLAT

IC50: 9.2 µM
Structure (SMILES): COc1ccc2cc(-c3cc(-c4cc(Cl)cc(Cl)c4)nn3[C@@H](C)c3ccc(C(=O)NCCC(=O)O)cc3)ccc2c1
